Where two headings read alike, the source gives them in different places.
Legend:
Assay type in all cases: cell-based
[1] = system: Corynebacterium ammoniagenes LK 75-15 (VKPM B-7812); test: Growth of the strain in the presence of pyrimidine analogues
[2] = system: Corynebacterium ammoniagenes LK 75-15 (VKPM B-7812); test: as above; remark: listed apart in the source
Text: (§1) Extent of resistance of this strain to various pyrimidine analogues as well as that of the parent strains LK 40-2 and LK 75-15 is shown in Table 11.

[3] = system: Corynebacterium ammoniagenes LK 75-66 (VKPM B-7813); test: as above
Text: as §1

[4] = system: Corynebacterium ammoniagenes VKPM B-6307; conditions: for Growth of the strains B-6307: basal agar medium A; for Growth of the strain VKPM B-6307 With addition (medium B): medium B (guanine, arginine, casamino acid added)
[5] = system: Corynebacterium ammoniagenes LK 40-2 (VKPM B-7811); test: Growth of the strain in the presence of pyrimidine analogues
Protocol: Corynebacterium ammoniagenes VKPM B-6307 was treated with 50 μg/ml of NTG for 20 minutes followed by ampicillin-enrichment procedure for obtaining mutants which could not utilize uridine effectively as a sole carbon source (uridine was added into liquid medium A of Table 2 instead of glucose). The obtained mutant cells were plated on a medium B of Table 2 supplemented with guanine (100 μg/ml), arginine (500 μg/ml), casamino acids (200 μg/ml) and 100 μg/ml of 5-fluorouridine.
The inoculated plates were incubated at 30° C. for 3 days.
The extent of resistance to various pyrimidine analogues of this strain as well as that of the parent strain VKPM B-6307 is shown in Table 4.
as §1

[6] = system: Corynebacterium ammoniagenes ATCC 6872; test: as above; conditions: basal agar medium A
[7] = medium B with 100 μg/ml analogue, 30° C., 3 days

## O=c1cc[nH]c(=S)[nH]1 [2-Thiouracil]
[1]; Table 8, analogue 1000 μg/ml
  Growth of the Strain LK 75-15: +
[2]; Table 11, analogue 1000 μg/ml
  Growth of the Strain LK 75-15: +
[3]; Table 11, analogue 1000 μg/ml
  Growth of the Strain LK 75-66: +
[4]; Table 4, analogue 1000 μg/ml
  Growth of the strain B-6307: −
[4]; Table 8, analogue 1000 μg/ml
  Growth of the strain B-6307: −
[4]; analogue 500 μg/ml
  Growth of the strains B-6307: +
[4]; analogue 1000 μg/ml
  Growth of the strains B-6307: +
[4]; analogue 3000 μg/ml
  Growth of the strains B-6307: +
[4]; analogue 5000 μg/ml
  Growth of the strains B-6307: +
[5]; Table 4, analogue 1000 μg/ml
  Growth of the strain LK 40-2: +
[5]; Table 11, analogue 1000 μg/ml
  Growth of the strain LK 40-2: +
[6]; analogue 500 μg/ml
  Growth of the strains ATCC6872: −
[6]; analogue 1000 μg/ml
  Growth of the strains ATCC6872: −
[6]; analogue 3000 μg/ml
  Growth of the strains ATCC6872: −
[6]; analogue 5000 μg/ml
  Growth of the strains ATCC6872: −

## O=c1[nH]cc(F)c(=O)[nH]1 [5-Fluorouracil]
[1]; Table 8, analogue 100 μg/ml
  Growth of the Strain LK 75-15: +
[1]; Table 8, analogue 300 μg/ml
  Growth of the Strain LK 75-15: −
[1]; Table 8, analogue 500 μg/ml
  Growth of the Strain LK 75-15: −
[1]; Table 8, analogue 1000 μg/ml
  Growth of the Strain LK 75-15: −
[2]; Table 11, analogue 100 μg/ml
  Growth of the Strain LK 75-15: +
[2]; Table 11, analogue 300 μg/ml
  Growth of the Strain LK 75-15: −
[2]; Table 11, analogue 500 μg/ml
  Growth of the Strain LK 75-15: −
[2]; Table 11, analogue 1000 μg/ml
  Growth of the Strain LK 75-15: −
[3]; Table 11, analogue 100 μg/ml
  Growth of the Strain LK 75-66: +
[3]; Table 11, analogue 300 μg/ml
  Growth of the Strain LK 75-66: +
[3]; Table 11, analogue 500 μg/ml
  Growth of the Strain LK 75-66: −
[3]; Table 11, analogue 1000 μg/ml
  Growth of the Strain LK 75-66: −
[4]; Table 4, analogue 100 μg/ml
  Growth of the strain B-6307: −
[4]; Table 4, analogue 300 μg/ml
  Growth of the strain B-6307: −
[4]; Table 4, analogue 500 μg/ml
  Growth of the strain B-6307: −
[4]; Table 4, analogue 1000 μg/ml
  Growth of the strain B-6307: −
[4]; Table 8, analogue 100 μg/ml
  Growth of the strain B-6307: −
[4]; Table 8, analogue 300 μg/ml
  Growth of the strain B-6307: −
[4]; Table 8, analogue 500 μg/ml
  Growth of the strain B-6307: −
[4]; Table 8, analogue 1000 μg/ml
  Growth of the strain B-6307: −
[4]; analogue 50 μg/ml
  Growth of the strains B-6307: +
[4]; analogue 100 μg/ml
  Growth of the strains B-6307: +
  Growth of the strain VKPM B-6307 No addition (medium A): +
  Growth of the strain VKPM B-6307 With addition (medium B): −
[4]; analogue 200 μg/ml
  Growth of the strains B-6307: +
  Growth of the strain VKPM B-6307 No addition (medium A): +
  Growth of the strain VKPM B-6307 With addition (medium B): −
[4]; analogue 500 μg/ml
  Growth of the strain VKPM B-6307 No addition (medium A): +
  Growth of the strain VKPM B-6307 With addition (medium B): −
[4]; analogue 600 μg/ml
  Growth of the strains B-6307: +
[4]; analogue 1000 μg/ml
  Growth of the strain VKPM B-6307 No addition (medium A): +
  Growth of the strain VKPM B-6307 With addition (medium B): −
[5]; Table 4, analogue 100 μg/ml
  Growth of the strain LK 40-2: +
[5]; Table 4, analogue 300 μg/ml
  Growth of the strain LK 40-2: +
[5]; Table 4, analogue 500 μg/ml
  Growth of the strain LK 40-2: +
[5]; Table 4, analogue 1000 μg/ml
  Growth of the strain LK 40-2: +
[5]; Table 11, analogue 100 μg/ml
  Growth of the strain LK 40-2: +
[5]; Table 11, analogue 300 μg/ml
  Growth of the strain LK 40-2: +
[5]; Table 11, analogue 500 μg/ml
  Growth of the strain LK 40-2: +
[5]; Table 11, analogue 1000 μg/ml
  Growth of the strain LK 40-2: +
[6]; analogue 50 μg/ml
  Growth of the strains ATCC6872: −
[6]; analogue 100 μg/ml
  Growth of the strains ATCC6872: −
[6]; analogue 200 μg/ml
  Growth of the strains ATCC6872: −
[6]; analogue 600 μg/ml
  Growth of the strains ATCC6872: −

## O=c1[nH]c(=O)n([C@@H]2O[C@H](CO)[C@@H](O)[C@H]2O)cc1F [5-Fluouridine]
[1]; Table 8, analogue 100 μg/ml
  Growth of the Strain LK 75-15: +
[1]; Table 8, analogue 300 μg/ml
  Growth of the Strain LK 75-15: +
[1]; Table 8, analogue 500 μg/ml
  Growth of the Strain LK 75-15: −
[1]; Table 8, analogue 1000 μg/ml
  Growth of the Strain LK 75-15: −
[1]; Table 11, analogue 300 μg/ml
  Growth of the Strain LK 75-15: +
[1]; Table 11, analogue 500 μg/ml
  Growth of the Strain LK 75-15: −
[2]; Table 11, analogue 100 μg/ml
  Growth of the Strain LK 75-15: +
[2]; Table 11, analogue 1000 μg/ml
  Growth of the Strain LK 75-15: −
[3]; Table 11, analogue 100 μg/ml
  Growth of the Strain LK 75-66: +
[3]; Table 11, analogue 300 μg/ml
  Growth of the Strain LK 75-66: +
[3]; Table 11, analogue 500 μg/ml
  Growth of the Strain LK 75-66: +
[3]; Table 11, analogue 1000 μg/ml
  Growth of the Strain LK 75-66: −
[4]; Table 4, analogue 100 μg/ml
  Growth of the strain B-6307: −
[4]; Table 4, analogue 300 μg/ml
  Growth of the strain B-6307: −
[4]; Table 4, analogue 500 μg/ml
  Growth of the strain B-6307: −
[4]; Table 4, analogue 1000 μg/ml
  Growth of the strain B-6307: −
[4]; Table 8, analogue 100 μg/ml
  Growth of the strain B-6307: −
[4]; Table 8, analogue 300 μg/ml
  Growth of the strain B-6307: −
[4]; Table 8, analogue 500 μg/ml
  Growth of the strain B-6307: −
[4]; Table 8, analogue 1000 μg/ml
  Growth of the strain B-6307: −
[4]; analogue 100 μg/ml
  Growth of the strains B-6307: +
  Growth of the strain VKPM B-6307 No addition (medium A): +
  Growth of the strain VKPM B-6307 With addition (medium B): −
[4]; analogue 200 μg/ml
  Growth of the strains B-6307: +
  Growth of the strain VKPM B-6307 No addition (medium A): +
  Growth of the strain VKPM B-6307 With addition (medium B): −
[4]; analogue 400 μg/ml
  Growth of the strains B-6307: +
[4]; analogue 500 μg/ml
  Growth of the strain VKPM B-6307 No addition (medium A): +
  Growth of the strain VKPM B-6307 With addition (medium B): −
[4]; analogue 600 μg/ml
  Growth of the strains B-6307: +
[4]; analogue 1000 μg/ml
  Growth of the strain VKPM B-6307 No addition (medium A): +
  Growth of the strain VKPM B-6307 With addition (medium B): −
[4]; [7]
  growth of the parent strain on supplemented medium: could not grow
[5]; Table 4, analogue 100 μg/ml
  Growth of the strain LK 40-2: +
[5]; Table 4, analogue 300 μg/ml
  Growth of the strain LK 40-2: +
[5]; Table 4, analogue 500 μg/ml
  Growth of the strain LK 40-2: +
[5]; Table 4, analogue 1000 μg/ml
  Growth of the strain LK 40-2: +
[5]; Table 11, analogue 100 μg/ml
  Growth of the strain LK 40-2: +
[5]; Table 11, analogue 300 μg/ml
  Growth of the strain LK 40-2: +
[5]; Table 11, analogue 500 μg/ml
  Growth of the strain LK 40-2: +
[5]; Table 11, analogue 1000 μg/ml
  Growth of the strain LK 40-2: +
[5]; [7]
  growth of strain LK 40-2 on supplemented medium: capable of growing
[6]; analogue 100 μg/ml
  Growth of the strains ATCC6872: −
[6]; analogue 200 μg/ml
  Growth of the strains ATCC6872: −
[6]; analogue 400 μg/ml
  Growth of the strains ATCC6872: −
[6]; analogue 600 μg/ml
  Growth of the strains ATCC6872: −

## O=c1cn[nH]c(=O)[nH]1 [6-Azauracil]
[1]; Table 8, analogue 1000 μg/ml
  Growth of the Strain LK 75-15: +
[2]; Table 11, analogue 1000 μg/ml
  Growth of the Strain LK 75-15: +
[3]; Table 11, analogue 1000 μg/ml
  Growth of the Strain LK 75-66: +
[4]; Table 4, analogue 1000 μg/ml
  Growth of the strain B-6307: −
[4]; Table 8, analogue 1000 μg/ml
  Growth of the strain B-6307: −
[4]; analogue 500 μg/ml
  Growth of the strains B-6307: +
[4]; analogue 1000 μg/ml
  Growth of the strains B-6307: +
[4]; analogue 3000 μg/ml
  Growth of the strains B-6307: +
[4]; analogue 5000 μg/ml
  Growth of the strains B-6307: +
[5]; Table 4, analogue 1000 μg/ml
  Growth of the strain LK 40-2: +
[5]; Table 11, analogue 1000 μg/ml
  Growth of the strain LK 40-2: +
[6]; analogue 500 μg/ml
  Growth of the strains ATCC6872: −
[6]; analogue 1000 μg/ml
  Growth of the strains ATCC6872: −
[6]; analogue 3000 μg/ml
  Growth of the strains ATCC6872: −
[6]; analogue 5000 μg/ml
  Growth of the strains ATCC6872: −

Source: patent US6344344B1, “Method for producing uridine-5'-monophosphate by fermentation using mutant strains of coryneform bacteria” (Ajinomoto Co., Inc., priority 1999, dated 2002)
